Measurements taken from ChEMBL document CHEMBL2401682, “Evaluation of Jatropha isabelli natural products and their synthetic analogs as potential antimalarial therapeutic agents” (Eur J Med Chem, 2013).

system: HEK293; assay: Cytotoxicity against HEK293 cells after 72 hrs by celltiter-glo assay; type: cell-based; conditions: Homo sapiens, HEK293, 72 h

Compound	EC50 [µM]
C/C1=C/C2=C[C@H](C)CC2(Br)C(=O)[C@@]2(C)O[C@@H]([C@@H](Br)C1=O)C(C)(C)CC2=O (stereo not given in full)	26
COc1ccc(/C2=C\C(=O)/C(C)=C\C3=C[C@H](C)C[C@@]34OC(=C(C)C4=O)CC2(C)C)cc1	26
CC1=C2CC(C)(C)/C(c3ccccc3)=C/C(=O)/C(C)=C\C3=C[C@H](C)C[C@]3(O2)C1=O	26
C/C1=C/C2=C[C@H](C)C[C@@]23O[C@]2(CC(C)(C)[C@@H](O)[C@@H]2C1=O)[C@@H](C)C3=O	26
CO[C@H]1[C@@H]2C(=O)/C(C)=C\C3=C[C@H](C)C[C@@]34O[C@]2(CC1(C)C)[C@@H](C)C4=O	26
C/C1=C/C2=C[C@H](C)C[C@@]23O[C@]2(CC(C)(C)C4CC1(ON4)O2)C(C)C3=O (stereo not given in full)	26
C/C1=C/C2=C[C@H](C)C[C@@]23O[C@]2(CC(C)(C)[C@@H](Nc4ccccc4)[C@@H]2C1=O)[C@@H](C)C3=O	26
CC1=C2CC(C)(C)CCC(=O)C(C)CC3C[C@H](C)C[C@]3(O2)C1=O (mixture of isomers)	26
CC1=C2CC(C)(C)CCC(=O)C(C)CC3=C[C@H](C)C[C@]3(O2)C1=O (mixture of isomers)	26
CC(=O)O[C@H]1CC[C@]2(C)[C@H]3CC[C@]4(C)C(=CC[C@@]5(C(=O)O)CCC(C)(C)C[C@H]54)[C@]3(C)CC[C@H]2C1(C)C [ACETYL ALEURITOLIC ACID]	26

system: BJ; assay: Cytotoxicity against human BJ cells after 72 hrs by celltiter-glo assay; type: cell-based; conditions: not given

Compound	EC50 [µM]
C/C1=C/C2=C[C@H](C)CC2(Br)C(=O)[C@@]2(C)O[C@@H]([C@@H](Br)C1=O)C(C)(C)CC2=O (stereo not given in full)	26
COc1ccc(/C2=C\C(=O)/C(C)=C\C3=C[C@H](C)C[C@@]34OC(=C(C)C4=O)CC2(C)C)cc1	26
CC1=C2CC(C)(C)/C(c3ccccc3)=C/C(=O)/C(C)=C\C3=C[C@H](C)C[C@]3(O2)C1=O	26
C/C1=C/C2=C[C@H](C)C[C@@]23O[C@]2(CC(C)(C)[C@@H](O)[C@@H]2C1=O)[C@@H](C)C3=O	10.4
CO[C@H]1[C@@H]2C(=O)/C(C)=C\C3=C[C@H](C)C[C@@]34O[C@]2(CC1(C)C)[C@@H](C)C4=O	26
C/C1=C/C2=C[C@H](C)C[C@@]23O[C@]2(CC(C)(C)C4CC1(ON4)O2)C(C)C3=O (stereo not given in full)	26
C/C1=C/C2=C[C@H](C)C[C@@]23O[C@]2(CC(C)(C)[C@@H](Nc4ccccc4)[C@@H]2C1=O)[C@@H](C)C3=O	12.6
CC1=C2CC(C)(C)CCC(=O)C(C)CC3C[C@H](C)C[C@]3(O2)C1=O (mixture of isomers)	26
CC1=C2CC(C)(C)CCC(=O)C(C)CC3=C[C@H](C)C[C@]3(O2)C1=O (mixture of isomers)	26
CC(=O)O[C@H]1CC[C@]2(C)[C@H]3CC[C@]4(C)C(=CC[C@@]5(C(=O)O)CCC(C)(C)C[C@H]54)[C@]3(C)CC[C@H]2C1(C)C [ACETYL ALEURITOLIC ACID]	26

system: HepG2; assay: Cytotoxicity against human HepG2 cells after 72 hrs by celltiter-glo assay; type: cell-based; conditions: HepG2, 72 h

Compound	EC50 [µM]
C/C1=C/C2=C[C@H](C)CC2(Br)C(=O)[C@@]2(C)O[C@@H]([C@@H](Br)C1=O)C(C)(C)CC2=O (stereo not given in full)	26
COc1ccc(/C2=C\C(=O)/C(C)=C\C3=C[C@H](C)C[C@@]34OC(=C(C)C4=O)CC2(C)C)cc1	26
CC1=C2CC(C)(C)/C(c3ccccc3)=C/C(=O)/C(C)=C\C3=C[C@H](C)C[C@]3(O2)C1=O	26
C/C1=C/C2=C[C@H](C)C[C@@]23O[C@]2(CC(C)(C)[C@@H](O)[C@@H]2C1=O)[C@@H](C)C3=O	26
CO[C@H]1[C@@H]2C(=O)/C(C)=C\C3=C[C@H](C)C[C@@]34O[C@]2(CC1(C)C)[C@@H](C)C4=O	26
C/C1=C/C2=C[C@H](C)C[C@@]23O[C@]2(CC(C)(C)C4CC1(ON4)O2)C(C)C3=O (stereo not given in full)	26
C/C1=C/C2=C[C@H](C)C[C@@]23O[C@]2(CC(C)(C)[C@@H](Nc4ccccc4)[C@@H]2C1=O)[C@@H](C)C3=O	26
CC1=C2CC(C)(C)CCC(=O)C(C)CC3C[C@H](C)C[C@]3(O2)C1=O (mixture of isomers)	26
CC1=C2CC(C)(C)CCC(=O)C(C)CC3=C[C@H](C)C[C@]3(O2)C1=O (mixture of isomers)	26
CC(=O)O[C@H]1CC[C@]2(C)[C@H]3CC[C@]4(C)C(=CC[C@@]5(C(=O)O)CCC(C)(C)C[C@H]54)[C@]3(C)CC[C@H]2C1(C)C [ACETYL ALEURITOLIC ACID]	26

system: Plasmodium falciparum; assay: Antimalarial activity against chloroquine-sensitive Plasmodium falciparum 3D7 infected in O-positive erythrocytes assessed as parasite growth inhibition after 72 hrs by DNA staining-based assay; type: functional, organism-based; conditions: 3D7, 72 h

Compound	EC50 [µM]
C/C1=C/C2=C[C@H](C)CC2(Br)C(=O)[C@@]2(C)O[C@@H]([C@@H](Br)C1=O)C(C)(C)CC2=O (stereo not given in full)	15
COc1ccc(/C2=C\C(=O)/C(C)=C\C3=C[C@H](C)C[C@@]34OC(=C(C)C4=O)CC2(C)C)cc1	15
CC1=C2CC(C)(C)/C(c3ccccc3)=C/C(=O)/C(C)=C\C3=C[C@H](C)C[C@]3(O2)C1=O	15
C/C1=C/C2=C[C@H](C)C[C@@]23O[C@]2(CC(C)(C)[C@@H](O)[C@@H]2C1=O)[C@@H](C)C3=O	15
CO[C@H]1[C@@H]2C(=O)/C(C)=C\C3=C[C@H](C)C[C@@]34O[C@]2(CC1(C)C)[C@@H](C)C4=O	15
C/C1=C/C2=C[C@H](C)C[C@@]23O[C@]2(CC(C)(C)C4CC1(ON4)O2)C(C)C3=O (stereo not given in full)	15
C/C1=C/C2=C[C@H](C)C[C@@]23O[C@]2(CC(C)(C)[C@@H](Nc4ccccc4)[C@@H]2C1=O)[C@@H](C)C3=O	8.88
CC1=C2CC(C)(C)CCC(=O)C(C)CC3C[C@H](C)C[C@]3(O2)C1=O (mixture of isomers)	15
CC1=C2CC(C)(C)CCC(=O)C(C)CC3=C[C@H](C)C[C@]3(O2)C1=O (mixture of isomers)	15
CC(=O)O[C@H]1CC[C@]2(C)[C@H]3CC[C@]4(C)C(=CC[C@@]5(C(=O)O)CCC(C)(C)C[C@H]54)[C@]3(C)CC[C@H]2C1(C)C [ACETYL ALEURITOLIC ACID]	15

system: Plasmodium falciparum; assay: Antimalarial activity against chloroquine and pyrimethamine-resistant Plasmodium falciparum K1 infected in O-positive erythrocytes assessed as parasite growth inhibition after 72 hrs by DNA staining-based assay; type: functional, organism-based; conditions: K1, 72 h

Compound	EC50 [µM]
C/C1=C/C2=C[C@H](C)CC2(Br)C(=O)[C@@]2(C)O[C@@H]([C@@H](Br)C1=O)C(C)(C)CC2=O (stereo not given in full)	15
COc1ccc(/C2=C\C(=O)/C(C)=C\C3=C[C@H](C)C[C@@]34OC(=C(C)C4=O)CC2(C)C)cc1	15
CC1=C2CC(C)(C)/C(c3ccccc3)=C/C(=O)/C(C)=C\C3=C[C@H](C)C[C@]3(O2)C1=O	15
C/C1=C/C2=C[C@H](C)C[C@@]23O[C@]2(CC(C)(C)[C@@H](O)[C@@H]2C1=O)[C@@H](C)C3=O	15
CO[C@H]1[C@@H]2C(=O)/C(C)=C\C3=C[C@H](C)C[C@@]34O[C@]2(CC1(C)C)[C@@H](C)C4=O	15
C/C1=C/C2=C[C@H](C)C[C@@]23O[C@]2(CC(C)(C)C4CC1(ON4)O2)C(C)C3=O (stereo not given in full)	15
C/C1=C/C2=C[C@H](C)C[C@@]23O[C@]2(CC(C)(C)[C@@H](Nc4ccccc4)[C@@H]2C1=O)[C@@H](C)C3=O	5.58
CC1=C2CC(C)(C)CCC(=O)C(C)CC3C[C@H](C)C[C@]3(O2)C1=O (mixture of isomers)	15
CC1=C2CC(C)(C)CCC(=O)C(C)CC3=C[C@H](C)C[C@]3(O2)C1=O (mixture of isomers)	15
CC(=O)O[C@H]1CC[C@]2(C)[C@H]3CC[C@]4(C)C(=CC[C@@]5(C(=O)O)CCC(C)(C)C[C@H]54)[C@]3(C)CC[C@H]2C1(C)C [ACETYL ALEURITOLIC ACID]	15

system: Raji; assay: Cytotoxicity against human Raji cells after 72 hrs by celltiter-glo assay; type: cell-based; conditions: not given

Compound	EC50 [µM]
C/C1=C/C2=C[C@H](C)CC2(Br)C(=O)[C@@]2(C)O[C@@H]([C@@H](Br)C1=O)C(C)(C)CC2=O (stereo not given in full)	26
COc1ccc(/C2=C\C(=O)/C(C)=C\C3=C[C@H](C)C[C@@]34OC(=C(C)C4=O)CC2(C)C)cc1	26
CC1=C2CC(C)(C)/C(c3ccccc3)=C/C(=O)/C(C)=C\C3=C[C@H](C)C[C@]3(O2)C1=O	26
C/C1=C/C2=C[C@H](C)C[C@@]23O[C@]2(CC(C)(C)[C@@H](O)[C@@H]2C1=O)[C@@H](C)C3=O	26
CO[C@H]1[C@@H]2C(=O)/C(C)=C\C3=C[C@H](C)C[C@@]34O[C@]2(CC1(C)C)[C@@H](C)C4=O	26
C/C1=C/C2=C[C@H](C)C[C@@]23O[C@]2(CC(C)(C)C4CC1(ON4)O2)C(C)C3=O (stereo not given in full)	26
C/C1=C/C2=C[C@H](C)C[C@@]23O[C@]2(CC(C)(C)[C@@H](Nc4ccccc4)[C@@H]2C1=O)[C@@H](C)C3=O	26
CC1=C2CC(C)(C)CCC(=O)C(C)CC3C[C@H](C)C[C@]3(O2)C1=O (mixture of isomers)	26
CC1=C2CC(C)(C)CCC(=O)C(C)CC3=C[C@H](C)C[C@]3(O2)C1=O (mixture of isomers)	26
CC(=O)O[C@H]1CC[C@]2(C)[C@H]3CC[C@]4(C)C(=CC[C@@]5(C(=O)O)CCC(C)(C)C[C@H]54)[C@]3(C)CC[C@H]2C1(C)C [ACETYL ALEURITOLIC ACID]	26
